Assay results from patent publication US6770597B2, “Benzohydrazide derivatives as herbicides and desiccant compositions containing them” (Ishihara Sangyo Kaisha, Ltd., priority 2002, dated 2004).

Tests used:
Type in all cases: in vivo
[1] = tested on: barnyardgrass (Echinochloa crus-galli, ECHCG); assay: Greenhouse herbicide screen, post-emerge application, phytotoxicity rating; settings: POST emergent, 14 days after application, scale 0-100
Text: (§1) A standard greenhouse herbicide activity screening system was used to evaluate the herbicidal efficacy and crop safety of these test compounds. Seven broadleaf weed species including redroot pigweed (Amaranthus retrofiexus, AMARE), velvetleaf (Abutilon theophrasti, ABUTH), sicklepod (Cassia obtusifolia, CASOB), ivyleaf morningglory (Ipomoea hederacea, IPOHE), lambsquarters (Chenopodium album, CHEAL), common ragweed (Ambrosia artemisiifolia L., AMBEL), and cocklebur (Xanthium strumarium, XANST) were used as test species. Four grass weed species including green foxtail (Setaria viridis, SETVI), barnyardgrass (Echinochloa crus-galli, ECHCG), johnsongrass (Sorghum halepense, SORHA), and large crabgrass (Digitaria sanguinalis, DIGSA) were also used. In addition, four crop species, field corn (Zea mays L., var. Dekalb 535, CORN), soybean (Glycine max L., var. Pella 86, SOY), upland rice (Oryza sp., var.Cocodrie, RICE) and wheat (Triticum aestivum L.) were included.
(§2) All plants were grown in 10 cm square plastic pots which were filled with a sandy loam soil mix. For pre-emerge tests, seeds were planted one day prior to application of the test compounds. For post-emerge tests, seeds were planted 8-21 days prior to the test to allow emergence and good foliage development prior to application of the test substances. At the time of the post-emerge application, plants of all species were usually at the 2-3 leaf stage of development.
(§3) All test compounds were dissolved in acetone and applied to the test units in a volume of 187 l/ha. Test materials were applied at rates ranging from 15 g ai/ha to 1000 g ai/ha using a track sprayer equipped with a TJ8001E even flow flat fan spray nozzle. Plants were arranged on a shelf so that the top of the canopy (post-emerge) or top of the soil surface (pre-emerge) was 40-45 cm below the nozzle. Pressurized air was used to force the test solution through the nozzle as it was mechanically advanced (via electrically driven chain drive) over the top of all test plants/pots. This application simulates a typical commercial field herbicide application.
(§4) Pre-emergence tests were top watered immediately after treatment to incorporate the test materials, then routinely top-watered for normal growth. Post-emerge test units were always bottom-watered.
(§5) At 14 days after application of the test materials, phytotoxicity ratings were recorded. A rating scale of 0-100 was used as previously described in Research Methods in Weed Science, 2nd edition, B. Truelove, Ed., Southern Weed Science Society, Auburn University, Auburn, Ala., 1977. Briefly, “0” corresponds to no damage and “100” corresponds to complete death of all plants in the test unit. This scale was used both to determine efficacy against weed species and damage to crop species. Herbicide activity data for various compounds of this invention, which are shown by compound No. in Tables 1-12, are shown in Tables 13 and 14.

[2] = tested on: cocklebur (Xanthium strumarium, XANST); assay: as above; settings: POST emergent, 14 days after application, scale 0-100
Text: as §1, §2, §3, §4, §5

[3] = tested on: common ragweed (Ambrosia artemisiifolia L., AMBEL); assay: as above; settings: POST emergent, 14 days after application, scale 0-100
Text: as §1, §2, §3, §4, §5

[4] = tested on: green foxtail (Setaria viridis, SETVI); assay: as above; settings: POST emergent, 14 days after application, scale 0-100
Text: as §1, §2, §3, §4, §5

[5] = tested on: ivyleaf morningglory (Ipomoea hederacea, IPOHE); assay: as above; settings: POST emergent, 14 days after application, scale 0-100
Text: as §1, §2, §3, §4, §5

[6] = tested on: johnsongrass (Sorghum halepense, SORHA); assay: as above; settings: POST emergent, 14 days after application, scale 0-100
Text: as §1, §2, §3, §4, §5

[7] = tested on: lambsquarters (Chenopodium album, CHEAL); assay: as above; settings: POST emergent, 14 days after application, scale 0-100
Text: as §1, §2, §3, §4, §5

[8] = tested on: large crabgrass (Digitaria sanguinalis, DIGSA); assay: as above; settings: POST emergent, 14 days after application, scale 0-100
Text: as §1, §2, §3, §4, §5

[9] = tested on: redroot pigweed (Amaranthus retrofiexus, AMARE); assay: as above; settings: POST emergent, 14 days after application
Text: as §1, §2, §3, §4, §5

[10] = tested on: sicklepod (Cassia obtusifolia, CASOB); assay: as above; settings: POST emergent, 14 days after application, scale 0-100
Text: as §1, §2, §3, §4, §5

[11] = tested on: velvetleaf (Abutilon theophrasti, ABUTH); assay: as above; settings: POST emergent, 14 days after application, scale 0-100
Text: as §1, §2, §3, §4, §5

[12] = tested on: field corn (Zea mays L., var. Dekalb 535, CORN); assay: Greenhouse herbicide screen, post-emerge application, crop damage rating; settings: POST emergent, 14 days after application, scale 0-100
Text: as §1, §2, §3, §4, §5

[13] = tested on: upland rice (Oryza sp., var.Cocodrie, RICE); assay: as above; settings: POST emergent, 14 days after application, scale 0-100
Text: as §1, §2, §3, §4, §5

[14] = tested on: barnyardgrass (Echinochloa crus-galli, ECHCG); assay: Greenhouse herbicide screen, pre-emerge application, phytotoxicity rating; settings: PRE emergent, 14 days after application, rating scale 0-100
Text: as §1, §2, §3, §4, §5

[15] = tested on: cocklebur (Xanthium strumarium, XANST); assay: as above; settings: PRE emergent, 14 days after application, rating scale 0-100
Text: as §1, §2, §3, §4, §5

[16] = tested on: common ragweed (Ambrosia artemisiifolia L., AMBEL); assay: as above; settings: PRE emergent, 14 days after application, rating scale 0-100
Text: as §1, §2, §3, §4, §5

[17] = tested on: green foxtail (Setaria viridis, SETVI); assay: as above; settings: PRE emergent, 14 days after application, rating scale 0-100
Text: as §1, §2, §3, §4, §5

[18] = tested on: ivyleaf morningglory (Ipomoea hederacea, IPOHE); assay: as above; settings: PRE emergent, 14 days after application, rating scale 0-100
Text: as §1, §2, §3, §4, §5

[19] = tested on: johnsongrass (Sorghum halepense, SORHA); assay: as above; settings: PRE emergent, 14 days after application, rating scale 0-100
Text: as §1, §2, §3, §4, §5

[20] = tested on: lambsquarters (Chenopodium album, CHEAL); assay: as above; settings: PRE emergent, 14 days after application, rating scale 0-100
Text: as §1, §2, §3, §4, §5

[21] = tested on: large crabgrass (Digitaria sanguinalis, DIGSA); assay: as above; settings: PRE emergent, 14 days after application, rating scale 0-100
Text: as §1, §2, §3, §4, §5

[22] = tested on: redroot pigweed (Amaranthus retrofiexus, AMARE); assay: as above; settings: PRE emergent, 14 days after application, rating scale 0-100
Text: as §1, §2, §3, §4, §5

[23] = tested on: sicklepod (Cassia obtusifolia, CASOB); assay: as above; settings: PRE emergent, 14 days after application, rating scale 0-100
Text: as §1, §2, §3, §4, §5

[24] = tested on: velvetleaf (Abutilon theophrasti, ABUTH); assay: as above; settings: PRE emergent, 14 days after application, rating scale 0-100
Text: as §1, §2, §3, §4, §5

[25] = tested on: field corn (Zea mays L., var. Dekalb 535, CORN); assay: Greenhouse herbicide screen, pre-emerge application, crop damage rating; settings: PRE emergent, 14 days after application, rating scale 0-100
Text: as §1, §2, §3, §4, §5

[26] = tested on: upland rice (Oryza sp., var.Cocodrie, RICE); assay: as above; settings: PRE emergent, 14 days after application, rating scale 0-100
Text: as §1, §2, §3, §4, §5

CN1CCN(NC(=O)c2cc(-n3c(=O)cc(C(F)(F)F)n(C)c3=S)c(F)cc2Cl)CC1 [Compound 1-14]
phytotoxicity rating ECHCO ([1]; 63 g ai/ha): 0
phytotoxicity rating ECHCO ([1]; 250 g ai/ha): 0
phytotoxicity rating XANST ([2]; 63 g ai/ha): 70
phytotoxicity rating XANST ([2]; 250 g ai/ha): 70
phytotoxicity rating AMBEL ([3]; 63 g ai/ha): 0
phytotoxicity rating AMBEL ([3]; 250 g ai/ha): 50
phytotoxicity rating SETVI ([4]; 63 g ai/ha): 0
phytotoxicity rating SETVI ([4]; 250 g ai/ha): 0
phytotoxicity rating IPOHE ([5]; 63 g ai/ha): 100
phytotoxicity rating IPOHE ([5]; 250 g ai/ha): 100
phytotoxicity rating SORHA ([6]; 63 g ai/ha): 0
phytotoxicity rating SORHA ([6]; 250 g ai/ha): 0
phytotoxicity rating CHEAL ([7]; 63 g ai/ha): 0
phytotoxicity rating CHEAL ([7]; 250 g ai/ha): 70
phytotoxicity rating DIGSA ([8]; 63 g ai/ha): 0
phytotoxicity rating DIGSA ([8]; 250 g ai/ha): 0
phytotoxicity rating AMARE ([9]; 63 g ai/ha, scale 0-100 (0 no damage, 100 complete death)): 0
phytotoxicity rating AMARE ([9]; 250 g ai/ha, scale 0-100): 30
phytotoxicity rating CASOB ([10]; 63 g ai/ha): 0
phytotoxicity rating CASOB ([10]; 250 g ai/ha): 0
phytotoxicity rating ABUTH ([11]; 63 g ai/ha): 0
phytotoxicity rating ABUTH ([11]; 250 g ai/ha): 35
crop damage rating CORN ([12]; 63 g ai/ha): 0
crop damage rating CORN ([12]; 250 g ai/ha): 50
crop damage rating RICE ([13]; 63 g ai/ha): 0
crop damage rating RICE ([13]; 250 g ai/ha): 0
phytotoxicity rating ECHCG ([14]; 63 g ai/ha): 0
phytotoxicity rating ECHCG ([14]; 250 g ai/ha): 70
phytotoxicity rating XANST ([15]; 63 g ai/ha): 40
phytotoxicity rating XANST ([15]; 250 g ai/ha): 65
phytotoxicity rating AMBEL ([16]; 63 g ai/ha): 35
phytotoxicity rating AMBEL ([16]; 250 g ai/ha): 70
phytotoxicity rating SETVI ([17]; 63 g ai/ha): 0
phytotoxicity rating SETVI ([17]; 250 g ai/ha): 55
phytotoxicity rating IPOHE ([18]; 63 g ai/ha): 10
phytotoxicity rating IPOHE ([18]; 250 g ai/ha): 65
phytotoxicity rating SORHA ([19]; 63 g ai/ha): 70
phytotoxicity rating SORHA ([19]; 250 g ai/ha): 95
phytotoxicity rating CHEAL ([20]; 63 g ai/ha): 100
phytotoxicity rating CHEAL ([20]; 250 g ai/ha): 100
phytotoxicity rating DIGSA ([21]; 63 g ai/ha): 55
phytotoxicity rating DIGSA ([21]; 250 g ai/ha): 70
phytotoxicity rating AMARE ([22]; 63 g ai/ha): 95
phytotoxicity rating AMARE ([22]; 250 g ai/ha): 100
phytotoxicity rating CASOB ([23]; 63 g ai/ha): 0
phytotoxicity rating CASOB ([23]; 250 g ai/ha): 50
phytotoxicity rating ABUTH ([24]; 63 g ai/ha): 30
phytotoxicity rating ABUTH ([24]; 250 g ai/ha): 90
crop damage rating CORN ([25]; 63 g ai/ha): 0
crop damage rating CORN ([25]; 250 g ai/ha): 0
crop damage rating RICE ([26]; 63 g ai/ha): 0
crop damage rating RICE ([26]; 250 g ai/ha): 50
